According to US10022373B2, “Posaconazole pharmaceutical compositions and preparation methods, uses and pharmaceutical formulations thereof” (SINOTHERAPEUTICS INC., priority 2014, dated 2018):
Where two headings read alike, the source gives them in different places.

Columns and labels:
[1] = Dissolution rate, USP II paddle method, simulated in vivo condition; format: physicochemical; settings: medium conversion pH 1.2→6.8
Method: Analytical method for dissolution samples: the same as the HPLC method in the above assay of apparent solubility.
It was reported that the pH value in human stomach was about 1.2, and that in human intestine was about 6.8. The dissolution of each of the pharmaceutical compositions of the present invention was determined under a stimulated in vivo condition, and the results are shown in Table 1-3.

[2] = cited from earlier work
[3] = Apparent solubility in phosphate buffer solution pH 6.8; format: physicochemical
Method: Weighting an excess amount of posaconazole pharmaceutical composition into a container, adding phosphate buffer solution (pH 6.8, about ⅔ of the volume of the container), and then placing the container in a shaking table at 37° C., and shaking for 3 h. Filtering the content with a 0.45 μm filter membrane, collecting the filtrate, diluting it with an appropriate amount of methanol, vortex mixing, and then determining the concentration of posaconazole via the following HPLC method: […]

## CC[C@@H]([C@H](C)O)n1ncn(-c2ccc(N3CCN(c4ccc(OC[C@@H]5CO[C@@](Cn6cncn6)(c6ccc(F)cc6F)C5)cc4)CC3)cc2)c1=O [API, 4-[4-[4-[4-[[(3R,5R)-5-(2,4-difluorophenyl)-5-(1,2,4-triazole-1-ylmethyl)oxolan-3-yl]methoxy]phenyl]piperazin-1-yl]phenyl]-2-[(2S,3S)-2-hydroxypentan-3-yl]-1,2,4-triazol-3-one]
[1]; pH 1.2, 5 min
  Dissolution: 89.0%
[1]; pH 1.2, 10 min
  Dissolution: 87.0%
[1]; pH 1.2, 30 min
  Dissolution: 98.7%
[1]; pH 6.8, 60 min
  Dissolution: 7.1%
[1]; pH 6.8, 120 min
  Dissolution: 5.6%
[1]; pH 6.8, 180 min
  Dissolution: 5.6%
[2]; free base form, environment of the stomach pH=˜1.2
  Solubility: about 0.8 mg/ml
[2]; pH higher than 4
  Solubility: < 1 µg/mL
[3]; aqueous buffer, thermodynamic from solid, phosphate buffer solution pH 6.8, 37° C., shaking 3 h
  solubility at 3 h: < 1 µg/mL
[3]; phosphate buffer solution pH 6.8
  Apparent solubility ratio (composition/API): 1
